Test results from patent publication US8173808B2, “Substituted naphthalenyl-pyrimidine compounds” (ArQule, Inc., priority 2009, dated 2012).
Structures can show the parent of a compound that is named as a salt.

melting point	SMILES
156 to 160 °C	CCN(CC)CCCN1CCN(c2cc(-c3ccnc(NCc4cccc(OC)c4)n3)cc3ccc(OC)cc23)CC1 (as salt: hydrochloride) [Compound 197, 4-(4-(4-(3-(diethylamino)propyl)piperazin-1-yl)-6-methoxynaphthalen-2-yl)-N-(3-methoxybenzyl)pyrimidin-2-amine]
160 to 167 °C	COc1cccc(CNc2nccc(-c3cc(N4CCN(CCCN5CCCC5)CC4)c4cc(OC)ccc4c3)n2)c1 (as salt: hydrochloride) [Compound 198, 4-(6-methoxy-4-(4-(3-(pyrrolidin-1-yl)propyl)piperazin-1-yl)naphthalen-2-yl)-N-(3-methoxybenzyl)pyrimidin-2-amine]
156 to 160 °C	CCCN(C)CCCN1CCN(c2cc(-c3ccnc(NCc4cccc(OC)c4)n3)cc3ccc(OC)cc23)CC1 (as salt: hydrochloride) [Compound 199, 4-(6-methoxy-4-(4-(3-(methyl(propyl)amino)propyl)piperazin-1-yl)naphthalen-2-yl)-N-(3-methoxybenzyl)pyrimidin-2-amine]
122 to 130 °C	COc1cccc(CNc2nccc(-c3cc(N4CCN(CCCN5CCC5)CC4)c4cc(OC)ccc4c3)n2)c1 (as salt: hydrochloride) [Compound 200, 4-(4-(4-(3-(azetidin-1-yl)propyl)piperazin-1-yl)-6-methoxynaphthalen-2-yl)-N-(3-methoxybenzyl)pyrimidin-2-amine]
160 to 169 °C	CCN(C)CCCN1CCN(c2cc(-c3ccnc(NCc4cccc(OC)c4)n3)cc3ccc(OC)cc23)CC1 (as salt: hydrochloride) [Compound 201, 4-(4-(4-(3-(ethyl(methyl)amino)propyl)piperazin-1-yl)-6-methoxynaphthalen-2-yl)-N-(3-methoxybenzyl)pyrimidin-2-amine]
155 to 161 °C	COc1cccc(CNc2nccc(-c3cc(N4CCN(CCCN(C)C5CCCCC5)CC4)c4cc(OC)ccc4c3)n2)c1 (as salt: hydrochloride) [Compound 202, 4-(4-(4-(3-(cyclohexyl(methyl)amino)propyl)piperazin-1-yl)-6-methoxynaphthalen-2-yl)-N-(3-methoxybenzyl)pyrimidin-2-amine]
136 to 138 °C	COCCCNc1nccc(-c2cc(N3CCNCC3)c3cc(OC)ccc3c2)n1 [Compound 113, 4-(6-methoxy-4-piperazin-1-yl-2-naphthyl)-N-(3-methoxypropyl)pyrimidin-2-amine]
188 to 190 °C	COc1ccc2cc(-c3ccnc(NCCCN(C)C)n3)cc(N3CCNCC3)c2c1 [Compound 114, N′-[4-(6-methoxy-4-piperazin-1-yl-2-naphthyl)pyrimidin-2-yl]-N,N-dimethylpropane-1,3-diamine]
142 to 144 °C	COc1cccc(CCNc2nccc(-c3cc(N4CCNCC4)c4cc(OC)ccc4c3)n2)c1 [Compound 115, N-[2-(3-methoxyphenyl)ethyl]-4-(6-methoxy-4-piperazin-1-yl-2-naphthyl)pyrimidin-2-amine]
70 to 73 °C	CNc1nccc(-c2cc(NC(=O)CN(C)C)c3cc(OC)ccc3c2)n1 [Compound 137, 2-(dimethylamino)-N-(7-methoxy-3-(2-(methylamino)pyrimidin-4-yl)naphthalen-1-yl)acetamide]
169 to 172 °C	CNc1nccc(-c2cc(NC(=O)CNCCO)c3cc(OC)ccc3c2)n1 [Compound 138, 2-((2-hydroxyethyl)amino)-N-(7-methoxy-3-(2-(methylamino)pyrimidin-4-yl)naphthalen-1-yl)acetamide]
167 to 172 °C	COc1ccc2cc(-c3ccnc(N(C)C)n3)cc(NC3CCN(c4ncnc5[nH]nc(Br)c45)CC3)c2c1 [Compound 144, 4-(4-((1-(3-bromo-1H-pyrazolo[3,4-d]pyrimidin-4-yl)piperidin-4-yl)amino)-6-methoxynaphthalen-2-yl)-N,N-dimethylpyrimidin-2-amine]
225 to 227 °C	COCCCNc1nccc(-c2cc(N3CCN(c4ncnc5[nH]nc(Br)c45)CC3)c3cc(OC)ccc3c2)n1 [Compound 177, 4-{4-[4-(3-bromo-1H-pyrazolo[3,4-d]pyrimidin-4-yl)piperazin-1-yl]-6-methoxy-2-naphthyl}-N-(3-methoxypropyl)pyrimidin-2-amine]
152 to 155 °C	COc1ccc2cc(-c3ccnc(NCCCN(C)C)n3)cc(N3CCN(c4ncnc5[nH]nc(Br)c45)CC3)c2c1 [Compound 178, N1-(4-(4-(4-(3-bromo-1H-pyrazolo[3,4-d]pyrimidin-4-yl)piperazin-1-yl)-6-methoxynaphthalen-2-yl)pyrimidin-2-yl)-N3,N3-dimethylpropane-1,3-diamine]
130 to 133 °C	COc1ccc2cc(-c3ccnc(NCCc4ccc(OC)c(OC)c4)n3)cc(N3CCN(c4ncnc5[nH]nc(Br)c45)CC3)c2c1 [Compound 179, 4-{4-[4-(3-bromo-1H-pyrazolo[3,4-d]pyrimidin-4-yl)piperazin-1-yl]-6-methoxy-2-naphthyl}-N-[2-(3,4-dimethoxyphenyl)ethyl]pyrimidin-2-amine]
200 to 203 °C	COc1cccc(CCNc2nccc(-c3cc(N4CCN(c5ncnc6[nH]nc(Br)c56)CC4)c4cc(OC)ccc4c3)n2)c1 [Compound 180, 4-{4-[4-(3-bromo-1H-pyrazolo[3,4-d]pyrimidin-4-yl)piperazin-1-yl]-6-methoxy-2-naphthyl}-N-[2-(3-methoxyphenyl)ethyl]pyrimidin-2-amine]
145 to 148 °C	CNc1nccc(-c2cc(NCCCNc3ncnc4[nH]nc(Br)c34)c3cc(OC)ccc3c2)n1 [Compound 183, N1-(3-bromo-1H-pyrazolo[3,4-d]pyrimidin-4-yl)-N3-(7-methoxy-3-(2-(methylamino)pyrimidin-4-yl)naphthalen-1-yl)propane-1,3-diamine]
231 to 232 °C	CNc1nccc(-c2cc(NC(=O)c3ccc(C(C)(C)C)cc3)c3cc(OC)ccc3c2)n1 [Compound 184, 4-tert-butyl-N-{7-methoxy-3-[2-(methylamino)pyrimidin-4-yl]-1-naphthyl}benzamide]
201 to 203 °C	CNc1nccc(-c2cc(NC(=O)c3ccccc3)c3cc(OC)ccc3c2)n1 [Compound 185, N-{7-methoxy-3-[2-(methylamino)pyrimidin-4-yl]-1-naphthyl}benzamide]
234 to 235 °C	CNc1nccc(-c2cc(NC(C)=O)c3cc(OC)ccc3c2)n1 [Compound 186, N-{7-methoxy-3-[2-(methylamino)pyrimidin-4-yl]-1-naphthyl}acetamide]
227 to 229 °C	CNc1nccc(-c2cc(NC(=O)c3ccc(C(F)(F)F)cc3)c3cc(OC)ccc3c2)n1 [Compound 187, N-{7-methoxy-3-[2-(methylamino)pyrimidin-4-yl]-1-naphthyl}-4-(trifluoromethyl)benzamide]
214 to 215 °C	CNc1nccc(-c2cc(NC(=O)c3ccc(OC)cc3)c3cc(OC)ccc3c2)n1 [Compound 188, 4-methoxy-N-{7-methoxy-3-[2-(methylamino)pyrimidin-4-yl]-1-naphthyl}benzamide]
142 to 144 °C	CNc1nccc(-c2cc(NCCCNCCCN(C)C)c3cc(OC)ccc3c2)n1 [Compound 191, N′-[3-({7-methoxy-3-[2-(methylamino)pyrimidin-4-yl]-1-naphthyl}amino)propyl]-N,N-dimethylpropane-1,3-diamine]
94 to 97 °C	CNc1nccc(-c2cc(NCCCSC(=N)N)c3cc(OC)ccc3c2)n1 [Compound 192, 3-({7-methoxy-3-[2-(methylamino)pyrimidin-4-yl]-1-naphthyl}amino)propyl imidothiocarbamate]
63 to 75 °C	COc1cccc(CNc2nccc(-c3cc(N4CCN(CCCN5CCCCC5)CC4)c4cc(OC)ccc4c3)n2)c1 [Compound 194, 4-(6-methoxy-4-(4-(3-(piperidin-1-yl)propyl)piperazin-1-yl)naphthalen-2-yl)-N-(3-methoxybenzyl)pyrimidin-2-amine]
70 to 75 °C	COc1cccc(CNc2nccc(-c3cc(N4CCN(CCCN(C)C)CC4)c4cc(OC)ccc4c3)n2)c1 [Compound 195, 4-(4-(4-(3-(dimethylamino)propyl)piperazin-1-yl)-6-methoxynaphthalen-2-yl)-N-(3-methoxybenzyl)pyrimidin-2-amine]
65 to 73 °C	COc1cccc(CNc2nccc(-c3cc(N4CCN(CCCN5CCOCC5)CC4)c4cc(OC)ccc4c3)n2)c1 [Compound 196, 4-(6-methoxy-4-(4-(3-morpholinopropyl)piperazin-1-yl)naphthalen-2-yl)-N-(3-methoxybenzyl)pyrimidin-2-amine]
